Reference: ChEMBL document CHEMBL1201862, “PubChem BioAssay data set” (2004)
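The compound was tested at five concentrations on cells cultured in 96-well plates, with a 48-hour exposure period. At the GI50, growth is halved.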 The source made the active and inactive calls. Rule as the data show it: active = GI50 up to about 1.1 µM and inactive = higher.

Assays:
Test in all cases: growth of human tumour cells (NCI), 48 h
OVCAR-4 = test system: OVCAR-4
UACC-257 = test system: UACC-257
SR = test system: SR
SNB-19 = test system: SNB-19
KM12 = test system: KM12
Malme-3M = test system: Malme-3M
TK-10 = test system: TK-10
SF-268 = test system: SF-268
HOP-92 = test system: HOP-92
SN12C = test system: SN12C
UACC-62 = test system: UACC-62
COLO 205 = test system: COLO 205
SNB-75 = test system: SNB-75
HL-60 = test system: HL-60
SK-MEL-5 = test system: SK-MEL-5
K562 = test system: K562
CCRF-CEM = test system: CCRF-CEM
NCI-H226 = test system: NCI-H226
HCC 2998 = test system: HCC 2998

Measured: GI50

O=C1C(Cl)N(c2ccccc2)C1c1c[nH]c2ccccc12 (stereo unspecified)
inactive: OVCAR-4 > 100 µM | UACC-257 > 100 µM | SR > 100 µM | SNB-19 48.9 µM | KM12 > 100 µM | Malme-3M > 100 µM | TK-10 > 100 µM | SF-268 > 100 µM | HOP-92 > 100 µM | SN12C > 100 µM | UACC-62 > 100 µM | COLO 205 > 100 µM | SNB-75 > 100 µM | HL-60 > 100 µM | SK-MEL-5 > 100 µM | K562 > 100 µM | CCRF-CEM > 100 µM

O=C(O)c1cc2sc(C(=O)O)cc2s1
inactive: OVCAR-4 > 100 µM | UACC-257 > 100 µM | NCI-H226 > 100 µM | SR > 100 µM | SNB-19 > 100 µM | KM12 > 100 µM | Malme-3M > 100 µM | TK-10 > 100 µM | SF-268 > 100 µM | HOP-92 > 100 µM | SN12C > 100 µM | UACC-62 > 100 µM | COLO 205 > 100 µM | SNB-75 > 100 µM | HL-60 > 100 µM | SK-MEL-5 > 100 µM | K562 > 100 µM | CCRF-CEM > 100 µM

O=c1oc2ccccc2n1P(=O)(n1c(=O)oc2ccccc21)n1c(=O)oc2ccccc21
inactive: OVCAR-4 > 100 µM | UACC-257 > 100 µM | NCI-H226 > 100 µM | SR > 100 µM | SNB-19 > 100 µM | KM12 > 100 µM | Malme-3M > 100 µM | TK-10 > 100 µM | SF-268 > 100 µM | HOP-92 > 100 µM | SN12C > 100 µM | UACC-62 > 100 µM | COLO 205 > 100 µM | HCC 2998 > 100 µM | SNB-75 90.2 µM | HL-60 > 100 µM | K562 > 100 µM | CCRF-CEM > 100 µM

CC(=O)Nc1ccc(OCC(O)CO)cc1 (stereo unspecified)
inactive: OVCAR-4 > 100 µM | UACC-257 > 100 µM | NCI-H226 > 100 µM | SR > 100 µM | SNB-19 > 100 µM | KM12 > 100 µM | Malme-3M > 100 µM | TK-10 > 100 µM | SF-268 > 100 µM | HOP-92 > 100 µM | SN12C > 100 µM | UACC-62 > 100 µM | COLO 205 > 100 µM | HCC 2998 > 100 µM | SNB-75 > 100 µM | SK-MEL-5 > 100 µM | K562 16.8 µM | CCRF-CEM 48.2 µM
